Format in all cases: cell-based, human
Series [1] concerns HD-56CAG gastruloids. The series can be described thus: HD gastruloid SOX17+ area rescue. The following applies: 1 μM; 48 hrs CHIR and Activin. The protocol:
BRD inhibitors were tested to determine whether they were able to rescue another HD phenotype in human gastruloids. When human embryonic stem cell colonies are stimulated for 48 hrs with CHIR and Activin a primitive-streak like population, SOX17+, is induced at the periphery (see FIG. 12a). Moreover, in HD gastruloids made from the HD-56CAG cells, the SOX17+ domain at the periphery is greatly expanded. This effect is even more pronounced when using a null HTT−/− cell line, which supports the findings that the HD mutation is in fact a loss of function mutation in a developmental context, as it phenocopies the absence of the protein.
Gastruloid induction: Using the protocol for coating micropatterned chips. after the final wash in PBS+/+, 8×10^5 cells were seeded on each coverslip in a defined volume of MEF-CM supplemented with 20 ng/ml bFGF (R&D Systems), 10 μM ROCK inhibitor (Y-27632, Abcam), 1× Penicillin-streptomycin (Thermo Fisher Scientific), 100 μg/ml Normocin (Invivogen) and left unperturbed for 10 minutes to ensure homogenous distribution across the patterns. ROCK inhibitor was removed from the medium 3 hours after seeding and cells were induced the following day with 50 ng/ml BM P4 (R&D Systems), 2 μM IWP2 (Stemgent), 6 μM CHIR99021 (EMD Millipore), 100 ng/ml ACTIVIN (R&D Systems) and small molecule treatments. Samples were fixed 48 hours later and analyzed by immunofluorescence.

The test system of series [2] is HD-56CAG neuruloids. Kind of series: HD neuruloid phenotype reversal (AI-scored phenotypic rescue). The following applies: for potency (EC50) in rescuing HD neuruloids: dose-dependent test of BRD9 inhibitors, FIG. 9A.
The subject of series [3] is HD-56CAG neuruloids. The description is as above. The following applies: for rescue of HD neuruloids to the WT configuration: FIG. 10; for rescue of HD neuruloids to the WT configuration / rescue of HD neuruloid phenotype, primary screen images: qualitative; for hit call in panel of BRD inhibitors (rescue efficacy above and toxicity below threshold): single concentration of 10 μM, 96 well plates, same hit criteria as primary screen; for rescue of HD neuruloid phenotype, primary screen images: 10 μM, staining DAPI, PAX6, phalloidin. The procedure: Micropatterned cell culture on chips and neuruloid induction: Micropatterned glass coverslips (CYTOOCHIPS Arena A, Arena 500A, Arena EMB A) were first coated with 10 μg ml^−1 recombinant Laminin-521 (BioLamina, LN521-03) diluted in PBS+/+(Gibco) for 3 h at 37° C. Micropatterns were placed face-up onto a Parafilm that was seated in a 10 cm dish, then 800 μl of laminin solution was added to the micropattern. After 3 h at 37° C., the coated micropattern was transferred to a 35 mm dish with 5 ml of PBS+/+. Laminin was removed with six serial dilutions in PBS+/+(dilution 1:4) before two complete washes in PBS+/+. Then the coated micropattern was kept in PBS+/+ at 37° C. Cells were seeded as follows: cells growing in MEF-CM on culture dish were washed once with PBS−/− (Gibco), then treated with accutase (Stem Cell Technologies) for 5 min. Cells were then triturated with a pipette to ensure single cell suspension and accutase was diluted out with 4× HUESM medium supplemented with 20 ng ml^−1 bFGF and ROCK inhibitor, Y27632 (10 μM; Abcam ab120129). Cells were further diluted with the same medium and 5×10^5 (or as indicated) cells in 3.0 ml of medium were placed over the micropattern in a 35-mm tissue culture dish, then incubated at 37° C. After 3 h, the micropattern in a dish was washed once with PBS+/+. For SB+LDN condition: PBS+/+ was replaced with 3 N medium73 with 10 μM SB431542 (Stemgent 04-0010-10) and 0.2 μM LDN 193189 (Stemgent 04-0019). At days 3 and 5, the medium was replaced with the same fresh medium and incubated at 37° C. until day 7. For SB+BM P4 condition (neuruloid), PBS was replaced with HUESM with 10 μM SB431542 and 0.2 μM LDN 193189. At day 3, the medium was replaced with HUESM with 10 μM SB431542 and BM P4 (50 ng ml^−1 or indicated each experiment). At day 5, the medium was replaced with the same fresh medium then incubated until day 7.
(§1) Micropatterned cell culture on 96 well plates and imaging: The micropatterned cell culture on chips and neuruloid induction protocol was used with micropatterned 96 well plates (CYTOOPLATES Arena A, Arena 700). The neuruloid induction was modified so that all steps requiring media changes, cell dispensing as well as washes and incubations for immunofluorescence were performed with a EL406 washer/dispense robot. For cell seeding, a volume of 200 μl cell suspension at a density of 0.18M cells per ml was used. Plate imaging was performed with an InCell Analyzer 2000 high-content imager through a 4× lens.
(§2) A number of libraries consisting of 2080 compounds were screened in 96 well plates with micropatterned glass bottoms. In these plates, each well has around 27 individual neuruloids. During the screen, two plates of WT controls and two plates of HD untreated controls were reserved in order to have enough control data for training the deep neural network for later analysis. Compounds were applied to the test plates at day 0 of differentiation and re-applied at day 3 and day 5 during media change steps. Each compound was applied in a unique well, at a unique concentration of 10 uM. At day 7, plates were fixed and stained for DAPI, PAX6 and Phalloidin. After staining, plates were imaged and individual neuruloids in every well were segmented and labeled before being fed to the specific deep neural network.
Image analysis: image tiles acquired from micropatterned or plate culture experiments were stitched and background-corrected. A foreground mask was created to detect colonies by thresholding the DAPI channel and calculating alpha shapes in respect to colony size. Each detected colony was extracted from the corrected and stitched image.
Deep learning for quantification of phenotypic rescue: Multichannel WT and disease organoid images are split into training (70%) and validation (30%) images. A neural network (NN) is then trained on the training data set. The NN is coded using a machine-learning framework such as Pytorch. […]

Series [4] deals with expanded HTT and total HTT. Kind of series: HTT levels in HD neuruloid lysates, ELISA-based meso scale discovery (MSD) electrochemiluminescence assay. Conditions: for HTT levels reduction ability (expanded HTT and total HTT): 1 μM and 5 μM, versus DMSO control. The procedure: We therefore repeated our protocol for the formation of HD neuruloids in two genetic backgrounds: 56CAG and 72CAG and treated with the 5 BRD inhibitors disclosed in FIG. 9 at two concentrations: 1 uM and 5 uM. At the end of the differentiation protocol, neuruloids lysates were frozen and later analyzed for their HTT contents. Both expanded HTT levels and total HTT levels (expanded+regular) were quantified through ELISA-based meso scale discovery (MSD) electrochemiluminescence assay.
HD neuruloids were created in two genetic backgrounds: 56CAG and 72CAG; and treated with the 5 BRD inhibitors disclosed in FIG. 10 at two concentrations: 1 μM and 5 μM. At the end of the differentiation protocol, neuruloid lysates were analyzed for their HTT contents. Both expanded HTT levels and total HTT levels (expanded+regular) were quantified through ELISA-based meso scale discovery (MSD) electrochemiluminescence assay.
A general note: An ELISA detects its analyte on a solid surface through an enzyme-linked reagent.

The subject of series [5] is WT-20CAG and HD-56CAG neuruloids. Kind of series: Neuruloid toxicity (autoencoder-based toxicity score). The procedure: as §1, §2
Deep learning for quantification of cytotoxicity: An autoencoder based method was used to asses toxicity. These unsupervised neural networks encode data and compress it in a low dimensional latent representation. The unsupervised nature of this machine learning method has the advantage that the autoencoder learns a representation of the data without any additional information about the data (such as that it is derived from wild type or disease cell lines), and is thus unbiased in estimating the toxicity of compounds. The representation of the data in terms of vectors also has the advantage that differences in the wild type and disease phenotype can be removed from the vector space, since this difference is not relevant in determining toxicity. Toxicity was determined in the following way: First, the difference between wild type and disease is removed from the latent space. Then, the distance from the mean vector of the wild type and disease phenotypes is calculated, and compared to the standard deviation of the wild type and disease phenotypes. This distance is defined as the toxicity.

Five molecules from patent US20230149373A1, “USE OF BROMODOMAIN INHIBITORS FOR TREATMENT OF HUNTINGTON'S DISEASE” (RUMI SCIENTIFIC HOLDINGS, INC., priority 2020, published 2023) can be followed below.

Broadly, the EC50 is the concentration needed to bring the measured effect to its halfway point.

Entries after “also recorded” stand apart in the source; their conditions may differ.

Consider `COc1cc(-c2cn(C)c(=O)c3cnccc23)cc(OC)c1CN(C)C` [BI-7273], for which the “SOX17+ area at the periphery of HD gastruloids” value (from here on “SOX17+ area at the periphery”) in series [1] was “significant reduction of the SOX17+ area”. Besides, the “potency (EC50) in rescuing HD neuruloids” value in series [2] is recorded as “sub-micromolar”. For the same molecule, the “rescue of HD neuruloids to the WT configuration” value (“rescue of HD neuruloids” for short) in series [3] is recorded as “rescue HD neuruloids to the WT configuration”. In addition, in series [3] (listed as B17273), the “hit call in panel of BRD inhibitors (rescue efficacy above and toxicity below threshold)” value is “high enough efficacy while keeping a low toxicity and scores positively and hit”. Further, in series [4] (56CAG and 72CAG neuruloids), the “HTT levels reduction ability (expanded HTT and total HTT)” value (from here on “HTT levels reduction ability”) was “no HTT reduction ability”.
On to `COc1cc(-c2cn(C)c(=O)c3cnccc23)cc(OC)c1CN(C)CC(=O)NCCOCCOCCNc1cccc2c1C(=O)N(C1CCC(=O)NC1=O)C2=O` (stereo not shown) [dBRD9], for which the “SOX17+ area at the periphery” value in series [1] was “significant reduction of the SOX17+ area”. Further, in series [2], the “potency (EC50) in rescuing HD neuruloids” value was “sub-micromolar”. Moreover, the “rescue of HD neuruloids” value in series [3] is recorded as “rescue HD neuruloids to the WT configuration”. The “HTT levels reduction ability” value in series [4] (56CAG and 72CAG neuruloids) is on record as “no HTT reduction ability”. In series [5] (dose-dependent test, FIG. 9B), the “toxic profile relative to Bromosporine” value was “lower than Bromosporine”.
`CCOC(=O)Nc1cc(-c2ccc(C)c(NS(C)(=O)=O)c2)nn2c(C)nnc12` [Bromosporine]: the “SOX17+ area at the periphery” value in series [1] is listed as “significant reduction of the SOX17+ area”. Moreover, the “rescue of HD phenotype, hit validation in small-scale experiment” value in series [2] (0.5 μM, staining SOX10, PAX6, N-CAD, qualitative) is “rescue of the disorganization induced by the HD gene; also recorded: rescued the HD phenotype”. Moreover, in series [2] (Homo sapiens, dose response, 10 concentrations in triplicates, read-out: EC50 rescuing the neuruloids HD-56CAG phenotype), the concentration for a half-maximal effect (EC50) worked out at 120 nM. Also, the “concentration at which fully effective” value in series [2] (dose response, HD neuruloids) is given as “around 300 nM”. Further, the “potency (EC50) in rescuing HD neuruloids” value in series [2] is reported as “sub-micromolar”. Also, the “rescue of HD neuruloid phenotype, primary screen images” value in series [3] was “reversal of the HD phenotype towards the WT configuration”; in series [3] (listed as bromosporine) it was “rescues the HD neuruloids phenotype”. Also, the “rescue of HD neuruloids” value in series [3] is reported as “rescue HD neuruloids to the WT configuration”. Further, the phenotypic rescue in series [3] (primary screen, 10 uM, HD neuruloids, AI score 0 = disease, 1 = WT, hit >0.95) is on record as 0.98. The “HTT levels reduction ability” value in series [4] (56CAG and 72CAG neuruloids) is “reduced both expanded HTT and total HTT levels; also recorded: has HTT lowering activity”. Moreover, the “reduction of expanded HTT levels” value is “more than 50%” in series [4] (1 μM, 56CAG and 72CAG neuruloids); “more than 75%” in series [4] (5 μM, all backgrounds (56CAG and 72CAG neuruloids)). Besides, the “concentrations at which a toxic response started to occur” value in series [5] (WT and HD-56CAG neuruloids) is recorded as “above 1 μM”. Also, the “toxicity in the window of concentration” value in series [5] (between 0.3 μM and 1 μM) was “low toxicity”. The toxicity score in series [5] (primary screen, 10 uM, HD neuruloids, toxic signature >3) was found to be 1.93.
For the molecule `CCn1cc(-c2cccc(C(F)(F)F)c2)c2sc(C(=N)NC3CCS(=O)(=O)CC3)cc2c1=O` [I-BRD9], in series [2], the “potency (EC50) in rescuing HD neuruloids” value was “sub-micromolar”. Further, the “rescue of HD neuruloids” value in series [3] is on record as “rescue HD neuruloids to the WT configuration”.
Turning to `COc1cc(-c2cn(C)c(=O)c3cnccc23)c(OC)cc1CN(C)C` [BI-9564], in series [2], the “potency (EC50) in rescuing HD neuruloids” value is reported as “sub-micromolar”. Moreover, in series [3], the “rescue of HD neuruloids” value was “rescue HD neuruloids to the WT configuration”; the “hit call in panel of BRD inhibitors (rescue efficacy above and toxicity below threshold)” value is listed as “did not score positively”. In addition, in series [4] (56CAG and 72CAG neuruloids), the “HTT levels reduction ability” value was “no HTT reduction ability”.
